From patent US5622962A, “5α-reductase inhibitors” (priority 1995, dated 1997)

Columns and labels:
[1] = biological target: T1, Type II 5α-Reductase from Human Prostate (Homo sapiens, UniProt P31213); assay: Human Type II 5α-reductase assay (conversion of [3H]-testosterone to 5α-reduced metabolites); type: biochemical; conditions: pH 5.5, 0.3 μM; sodium acetate pH 5.5, 25°, 30 min; compared to control reaction mixtures; read-out: percent inhibition of Type II AR
T1 construct: The same procedure as above was used for preparations using tissue from prostate surgery; from tissue; host or cells: human prostate tissue from surgery, homogenate, 100,000×g pellet
T1 sequence (P31213 1-254): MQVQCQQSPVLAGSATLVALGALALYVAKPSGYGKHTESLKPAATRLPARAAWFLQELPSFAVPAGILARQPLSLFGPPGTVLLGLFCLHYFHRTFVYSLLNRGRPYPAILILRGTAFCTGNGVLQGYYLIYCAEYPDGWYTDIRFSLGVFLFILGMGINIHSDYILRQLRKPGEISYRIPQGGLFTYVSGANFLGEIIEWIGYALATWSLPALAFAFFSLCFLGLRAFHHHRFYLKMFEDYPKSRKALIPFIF

[2] = biological target: T2, Type I 5α-Reductase from Human Scalp (Homo sapiens, UniProt P18405); assay: Human Type I 5α-reductase assay (conversion of [3H]-testosterone to 5α-reduced metabolites); type: biochemical; conditions: pH 7.5, 0.3 μM; 50 nM [3H]-testosterone, pH 7.5, 25°, 180 min; compared to control reaction mixtures; read-out: percent inhibition of Type I AR
T2 construct: Scalp punch biopsies from graft recipient sites were obtained from human hair transplant procedures; from tissue; host or cells: human scalp punch biopsies (hair transplant graft recipient sites), homogenate, 100,000×g pellet
T2 sequence (P18405 1-259): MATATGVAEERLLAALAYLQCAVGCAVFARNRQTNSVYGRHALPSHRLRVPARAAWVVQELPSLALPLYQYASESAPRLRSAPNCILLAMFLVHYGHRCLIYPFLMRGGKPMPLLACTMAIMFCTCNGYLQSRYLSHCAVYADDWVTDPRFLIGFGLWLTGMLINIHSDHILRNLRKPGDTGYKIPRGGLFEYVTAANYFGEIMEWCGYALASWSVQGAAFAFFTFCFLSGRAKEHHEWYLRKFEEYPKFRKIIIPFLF

inhibition at 0.3 µM [1] [%]	inhibition at 0.3 µM [2] [%]	SMILES
28	83	CN1C(=O)CC[C@]2(C)c3ccc(-c4cc(C(F)(F)F)cc(C(F)(F)F)c4)cc3CC[C@@H]12 [Example 87, (+)-(4aR)-(10bR)-4-methyl-8-(3,5-his [trifluoromethyl]phenyl)-10b-methyl-1,2,3,4,4a,5,6,10b-octahydrobenzo[f]quinolin-3-one]
16	27	CN1C(=O)CC[C@]2(C)c3ccc(-c4nnnn4-c4ccccc4)cc3CC[C@@H]12 [Example 258, (+)-(4aR)-(10bR)-4-methyl-8-(2-[3-phenyl]tetrazolyl)-10b-methyl-1,2,3,4,4a,5,6,10b-octahydrobenzo[f]quinolin-3-one]
83	80	CN1C(=O)CC[C@]2(C)c3ccc(Sc4ccc5ccccc5n4)cc3CC[C@@H]12 [Example 107, (+)-(4aR)-(10bR)-4,10b-dimethyl-8-(2-quinolinylthio)-1,2,3,4,-4a,5,6,10b-octahydrobenzo[f]quinolin-3-one]
